Values quoted from earlier work in patent US20240365792A1, “Pest Control Formulations and Uses Thereof” (priority 2021, published 2024).

Tests used:
[1] = direct application to the skin
acetylcholinesterase = acetylcholinesterase (Homo sapiens, UniProt P22303); settings: in humans
insects = settings: compared with DEET
salamander larvae = settings: in vivo

Chain of acetylcholinesterase (P22303 32-614): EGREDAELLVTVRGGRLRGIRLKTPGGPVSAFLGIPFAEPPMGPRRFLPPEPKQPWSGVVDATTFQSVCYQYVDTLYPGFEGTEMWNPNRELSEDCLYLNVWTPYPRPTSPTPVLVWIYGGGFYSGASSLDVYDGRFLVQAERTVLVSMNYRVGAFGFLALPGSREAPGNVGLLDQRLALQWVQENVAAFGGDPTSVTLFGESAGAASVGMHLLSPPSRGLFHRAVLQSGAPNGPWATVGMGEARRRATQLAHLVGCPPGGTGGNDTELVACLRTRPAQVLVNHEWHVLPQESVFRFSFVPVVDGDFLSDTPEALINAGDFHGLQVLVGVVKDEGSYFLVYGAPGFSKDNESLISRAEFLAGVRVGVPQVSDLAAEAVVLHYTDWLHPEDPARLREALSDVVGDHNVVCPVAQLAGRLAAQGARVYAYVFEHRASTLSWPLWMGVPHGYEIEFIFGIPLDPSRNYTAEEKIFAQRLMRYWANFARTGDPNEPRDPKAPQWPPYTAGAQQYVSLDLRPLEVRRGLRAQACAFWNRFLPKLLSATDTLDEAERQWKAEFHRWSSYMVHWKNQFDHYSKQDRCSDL

| SMILES | irritancy [1] | inhibition of acetylcholinesterase (acetylcholinesterase) | effectiveness at repelling insects (insects) | toxicity to salamander larvae (salamander larvae) |
| --- | --- | --- | --- | --- |
| CCN(CC)C(=O)c1cccc(C)c1 [DEET, N,N-diethyl-3-methylbenzamide] | act as an irritant | inhibit acetylcholinesterase | – | – |
| CCC(C)OC(=O)N1CCCCC1CCO (centres unmarked) [icaridin] | less irritating than DEET | – | as effective as DEET | toxic to salamander larvae |
